Seven molecules from patent publication US20180008587A1, “THIOHYDANTOIN ANDROGEN RECEPTOR ANTAGONISTS FOR THE TREATMENT OF CANCER” (Jaressen Pharmaceutica NV, priority 2016, published 2018) can be followed below.

What all share (format): cell-based
Assay [1] has as its target T1, wild-type Androgen Receptor (AR-wt) (Homo sapiens, UniProt P10275).
T1 construct: expressed in transfected cells; host or cells: LNCaP (LNCaP AR (cs))
T1 sequence (P10275 1-920): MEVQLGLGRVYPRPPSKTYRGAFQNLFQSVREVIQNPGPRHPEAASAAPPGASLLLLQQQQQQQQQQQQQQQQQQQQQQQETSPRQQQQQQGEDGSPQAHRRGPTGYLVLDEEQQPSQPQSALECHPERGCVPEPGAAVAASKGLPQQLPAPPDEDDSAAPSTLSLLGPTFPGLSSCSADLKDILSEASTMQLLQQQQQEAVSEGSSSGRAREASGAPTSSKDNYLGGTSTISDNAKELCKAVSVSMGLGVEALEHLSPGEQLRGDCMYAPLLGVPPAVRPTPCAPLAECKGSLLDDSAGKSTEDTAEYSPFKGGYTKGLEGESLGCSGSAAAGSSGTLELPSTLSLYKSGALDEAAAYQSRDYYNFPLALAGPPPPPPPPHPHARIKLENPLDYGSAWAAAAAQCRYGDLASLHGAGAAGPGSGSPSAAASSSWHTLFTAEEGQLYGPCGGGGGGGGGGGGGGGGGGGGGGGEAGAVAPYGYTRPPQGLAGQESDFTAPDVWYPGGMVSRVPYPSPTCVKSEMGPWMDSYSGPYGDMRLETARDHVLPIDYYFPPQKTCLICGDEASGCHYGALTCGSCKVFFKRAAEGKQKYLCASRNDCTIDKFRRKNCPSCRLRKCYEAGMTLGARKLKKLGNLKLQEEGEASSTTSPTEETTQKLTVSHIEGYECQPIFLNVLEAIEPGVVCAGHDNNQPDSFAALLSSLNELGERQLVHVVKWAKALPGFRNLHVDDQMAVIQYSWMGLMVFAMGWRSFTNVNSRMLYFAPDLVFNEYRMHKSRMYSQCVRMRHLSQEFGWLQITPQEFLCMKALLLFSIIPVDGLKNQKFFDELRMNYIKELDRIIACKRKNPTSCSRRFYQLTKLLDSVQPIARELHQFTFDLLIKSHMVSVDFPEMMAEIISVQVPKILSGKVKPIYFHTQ
The assay can be described thus: LNCaP-AR-wt AG reporter assay (ARE firefly luciferase, agonist mode). As to conditions: for Emax: read-out: LNCaP-AR-wt AG MAX % Stim. Here is the method:
(§1) A stable pooled-population cell line was generated using puromycin (Life Technologies) selection at 1:10,000 v/v. The protocol below was used for both cell lines and for testing of the compounds of Formula (I) of the present invention.
(§2) LNCaP cells were grown to about 80% confluence, media removed and cells rinsed in Hank's balanced salt solution prior to separation from the plate with 0.05% Trypsin EDTA. Cells were lifted and trypsin negated in complete CSS (charcoal stripped serum) culture media. […] Agonist challenge was at 400 pM for WT assay and 600 pM for F876L assay. Plates containing cells and compounds herein were incubated for a further 20-24 hours at 37° C., 5% CO2 before addition of 40 μL/well of Steady-Glo Luciferase Assay System Reagent (Promega# E2520). After 1 h, plates were read for luminescence on a BMG Pherastar.
(§3) EC/IC50 calculations were achieved utilizing calculated RLU data and data fitting macros. Data were fit using least-squares methods to the following formula: […]

Assay [2] addresses T1, wild-type Androgen Receptor (AR-wt). The assay can be described thus: LNCaP-AR-wt ANT reporter assay (ARE firefly luciferase, antagonist mode). As to conditions: for IC50: antagonist mode, 400 pM R-1881 challenge, −Log10(IC50 [Molar]), read-out: LNCaP-AR-wt ANT pIC50 (converted); for Emax: read-out: LNCaP-AR-wt ANT MAX % Inh. Here is the method: as §1, §2, §3
Assay [3] has as its target T2, F876L mutant Androgen Receptor (AR-F876L) (Homo sapiens, UniProt P10275, F877L).
T2 construct: expressed in transfected cells; host or cells: LNCaP (LNCaP F876L)
T2 sequence (P10275 1-920 F877L): T1 sequence (P10275 1-920) with F877L
The assay can be described thus: LNCaP-AR-F876L AG reporter assay (ARE firefly luciferase, agonist mode). The conditions noted are these: for Emax: read-out: LNCaP-AR-F876L AG MAX % Stim. Here is the method: as §1, §2, §3

For assay [4], the target named is T2, F876L mutant Androgen Receptor (AR-F876L). The assay can be described thus: LNCaP-AR-F876L ANT reporter assay (ARE firefly luciferase, antagonist mode). As to conditions: for Emax: read-out: LNCaP-AR-F876L ANT MAX % Inh; for IC50: read-out: LNCaP-AR-F876L ANT pIC50 (converted). Here is the method:
as §1, §2, §3

The mark [5] stands for this setting: agonist mode, −Log10(EC50 [Molar]), read-out: LNCaP-AR-wt AG pEC50 (converted).
Setting [6] is: maximum % stimulation (agonist response) over tested concentration range.
[7] abbreviates: maximum % inhibition of R1881 control response over tested concentration range.
Where [8] appears, read: agonist mode, −Log10(EC50 [Molar]), read-out: LNCaP-AR-F876L AG pEC50 (converted).

Substitutions are numbered along the chain they refer to. Where two headings read alike, the source gives them in different places.

In the case of `N#Cc1ncc(N2C(=O)C3(CCC3)N(c3ccc(C(N)=O)c(F)c3)C2=S)cc1C(F)(F)F` [Cpd 80, 4-[6-[6-cyano-5-(trifluoromethyl)-3-pyridyl]-5-oxo-7-thioxo-6,8-diazaspiro[3.4]octan-8-yl]-2-fluoro-benzamide], the EC50 in assay [1] (setting [5]) and in assay [3] (setting [8]) was more than 15100 nM in each case. For the same molecule, the Emax worked out at 0.4% in assay [1] (setting [6]), 100% in assay [2] (setting [7]), 1.2% in assay [3] (setting [6]) and 95.4% in assay [4] (setting [7]). Besides, the values for the IC50 in assay [2] and in assay [4] were 891 nM and 427 nM, respectively.
As to `CCCNC(=O)c1ccc(N2C(=S)N(c3cnc(C#N)c(C(F)(F)F)c3)C(=O)C23CCC3)cc1F` [Cpd 68, 4-[6-[6-cyano-5-(trifluoromethyl)-3-pyridyl]-5-oxo-7-thioxo-6,8-diazaspiro[3.4]octan-8-yl]-2-fluoro-N-propyl-benzamide], the EC50 in assay [1] and in assay [3] was more than 15100 nM in each case. Further, the Emax in assay [1] amounted to 0.2%; in assay [2] it was 96.7%; in assay [3], 0.9%; in assay [4] it was 98%. For the same molecule, the values for the IC50 in assay [2] and in assay [4] were 589 nM and 427 nM, respectively.
`N#Cc1ncc(N2C(=O)C3(CCC3)N(c3cccc4ccccc34)C2=S)cc1C(F)(F)F` [Cpd 34, 5-[8-(1-naphthyl)-5-oxo-7-thioxo-6,8-diazaspiro[3.4]octan-6-yl]-3-(trifluoromethyl)pyridine-2-carbonitrile]: the EC50 in assay [1] and in assay [3] was more than 15100 nM in each case. Also, the Emax in assay [1] was -0.1%; in assay [2], 99.7%; in assay [3] it was 0.2%; in assay [4], 99.4%. Besides, the IC50 was 562 nM in assay [2] and 617 nM in assay [4].
For the molecule `Cc1cc(N2C(=O)C3(CCC3)N(c3ccc(C(=O)Nc4ccc(F)cc4)c(F)c3)C2=S)cnc1C#N` [Cpd 84, 4-[6-(6-cyano-5-methyl-3-pyridyl)-5-oxo-7-thioxo-6,8-diazaspiro[3.4]octan-8-yl]-2-fluoro-N-(4-fluorophenyl)benzamide], the EC50 in assay [1] (setting [5]) and in assay [3] (setting [8]) was more than 15100 nM each time. Besides, the Emax in assay [1] (setting [6]) is 1%; in assay [2] (setting [7]) it was 87.8%; in assay [3] (setting [6]) it was 1.3%; in assay [4] (setting [7]), 91.9%. The IC50 is 912 nM in assay [2] and 479 nM in assay [4].
Take `CC(C)(O)CNC(=O)c1ccc(N2C(=S)N(c3cnc(C#N)c(C(F)(F)F)c3)C(=O)C23CCC3)cc1F` [Cpd 17, 4-[6-[6-cyano-5-(trifluoromethyl)-3-pyridyl]-5-oxo-7-thioxo-6,8-diazaspiro[3.4]octan-8-yl]-2-fluoro-N-(2-hydroxy-2-methyl-propyl)benzamide]: the EC50 in assay [1] and in assay [3] was more than 15100 nM throughout. Moreover, the Emax is -0.1% in assay [1], 95.5% in assay [2], 0.1% in assay [3] and 97.2% in assay [4]. The IC50 was 2690 nM in assay [2] and 1100 nM in assay [4].
As for `Cc1cc(N2C(=O)C3(CCC3)N(c3ccc(OC4CCOCC4)cc3)C2=S)cnc1C#N` [Cpd 87, 3-methyl-5-[5-oxo-8-(4-tetrahydropyran-4-yloxyphenyl)-7-thioxo-6,8-diazaspiro[3.4]octan-6-yl]pyridine-2-carbonitrile], in assay [1], the EC50 was more than 15100 nM and the Emax stood at 1.1%. Further, in assay [3], the EC50 was more than 15100 nM and the Emax worked out at 0.9%. Further, in assay [4], the Emax was 99.7% and the IC50 is 288 nM.
For `N#Cc1ncc(N2C(=O)C3(CCC3)N(c3ccc(C(=O)NCCc4ccccc4)c(F)c3)C2=S)cc1C(F)(F)F` [Cpd 42, 4-[6-[6-cyano-5-(trifluoromethyl)-3-pyridyl]-5-oxo-7-thioxo-6,8-diazaspiro[3.4]octan-8-yl]-2-fluoro-N-phenethyl-benzamide], the EC50 in assay [1] (setting [5]) and in assay [3] (setting [8]) was more than 15100 nM each time. The Emax turned out to be 0.3% in assay [1] (setting [6]), 100% in assay [2] (setting [7]) and 0% in assay [3] (setting [6]). The IC50 in assay [2] is 245 nM.
